The values that follow come from publication PMC6796870, “A two-step lineage reprogramming strategy to generate functionally competent human hepatocytes from fibroblasts” (Cell Research, 2019).

Structures can show the parent of a compound that is named as a salt. Where two headings read alike, the source gives them in different places.

For series [1] the following is noted: Table S9; ref 1,2 (Chen, M. et al. 2011); cited from earlier work.
Series [2] relates to hiHeps. The series can be described thus: Toxicity assay (TC50, 24 h, minimum of four viability parameters) in hiHeps. As to conditions: concentration giving 50% reduction of cell viability, values rounded for ease of use.
The next series deals with HBV. As to the kind of experiment: HBV infection of hiHeps, antiviral drug response. The series is classed as cell-based, hepatitis B virus. Particulars: HBV-infected hiHeps; for HBV-DNA / HBV-RNA / HBV-proteins: 36 days, LAM 1 μM, ETV 0.5 μM during and after infection.
The subject of series [3] is hiHeps.
Series [4] deals with hiHeps. Particulars: human.
The subject of series [5] is hiHeps. The series is classed as cell-based, human. On the procedure: The correlation between groups was evaluated by the Pearson correlation coefficient (r). b Time- and dose-dependent chronic toxicity of troglitazone in hiHeps. Mitochondrial activities were normalized to DMSO-treated cultures at corresponding day. n = 6. c Fluorescence evaluation of the pathological effects of DILI in hiHeps. Steatosis (up) and phospholipidosis (down) were evaluated in hiHeps after exposure to steatosis-causing compounds and phospholipidosis-causing compounds, respectively. Rifampin (non-steatosis/phospholipidosis-causing drug) or DMSO treatment were set as controls. For all compounds, images were captured at the concentration of 80% TC50. For all measurements, ‘n’ represents the number of biological replicates. The scale bars represent 50 μm. Data are presented as mean ± SEM

Another series deals with IFN-stimulated genes. As to the kind of experiment: Expression of IFN-stimulated genes in hiHeps. Particulars: IFN-α treatment. The series is classed as cell-based, human.

For `CC(=O)O[C@@]12CO[C@@H]1C[C@H](O)[C@@]1(C)C(=O)[C@H](O)C3=C(C)[C@@H](OC(=O)[C@H](O)[C@@H](NC(=O)OC(C)(C)C)c4ccccc4)C[C@@](O)([C@@H](OC(=O)c4ccccc4)[C@H]21)C3(C)C` [Docetaxel], the Label result in series [1] is “DILI concern by FDA”.
On to `CCN(CC)CCNC(=O)c1c(C)[nH]c(/C=C2\C(=O)Nc3ccc(F)cc32)c1C` [Sunitinib], for which the Label entry in series [1] is given as “DILI concern by FDA”.
For the molecule `CCCCc1oc2ccccc2c1C(=O)c1cc(I)c(OCCN(CC)CC)c(I)c1` [amiodarone], the TC50 with hiHeps [2] is around 30 µM.
On the same count and under the same terms, the entry for `CN(C)CCCN1c2ccccc2Sc2ccc(Cl)cc21` [chlorpromazine] is “≈ 25 μM”.
For the molecule `C=C1[C@H](CO)[C@@H](O)C[C@@H]1n1cnc2c(=O)[nH]c(N)nc21` [entecavir], in the series with HBV, the HBV-DNA entry is “greatly inhibited”, the HBV-RNA result is “moderate effect” and the HBV-proteins entry was “moderate effect”.
With `CC(C)C(=O)Nc1ccc([N+](=O)[O-])c(C(F)(F)F)c1` [flutamide], the “Toxicity after treatment with CYP3A4 inducer (rifampin)” value in the series on hiHeps [3] was “increased”. Besides, the “DDI effects on toxicity (rifampin, rifampin + ketoconazole)” value with HepG2 cells was “not detected”.
Take `Nc1ccn([C@@H]2CS[C@H](CO)O2)c(=O)n1` [lamivudine]: in the series on HBV, the HBV-DNA result is on record as “greatly inhibited”, the HBV-RNA result was “moderate effect” and the HBV-proteins entry was “moderate effect”.
In the series on hiHeps [2], `CO[C@H]1/C=C/O[C@@]2(C)Oc3c(C)c(O)c4c(O)c(c(/C=N/N5CCN(C)CC5)c(O)c4c3C2=O)NC(=O)/C(C)=C\C=C\[C@H](C)[C@H](O)[C@@H](C)[C@@H](O)[C@@H](C)[C@H](OC(C)=O)[C@@H]1C` [rifampin] showed a TC50 of around 100 µM.
In the series on hiHeps [4], `CN(C)[C@@H]1C(O)=C(C(N)=O)C(=O)[C@@]2(O)C(O)=C3C(=O)c4c(O)cccc4[C@@](C)(O)[C@H]3C[C@@H]12` [tetracycline hydrochloride] showed a TC50 of around 400 µM.
Regarding `Cc1c(C)c2c(c(C)c1O)CCC(C)(COc1ccc(CC3SC(=O)NC3=O)cc1)O2` (centres unmarked) [troglitazone], in the series on hiHeps [5], the Chronic toxicity entry is reported as “extensive cell death”.
As to aflatoxin B1, in the series on hiHeps [3], the “Toxicity after rifampin plus CYP3A4 inhibitor (ketoconazole)” value is on record as “rescued” and the “Toxicity after treatment with CYP3A4 inducer (rifampin)” value is recorded as “increased”. The “DDI effects on toxicity (rifampin, rifampin + ketoconazole)” value in the series on HepG2 cells is “not detected”.
As to interferon-alpha, the “All major HBV markers (HBV-DNA, HBV-RNA, HBV-proteins)” value in the series with HBV (1000 U/mL after infection) was “inhibitory effect”. The “Expression of IFN-stimulated genes” value with IFN-stimulated genes was “upregulation”.
